What was measured:
HUVECs [1] = experiment: NO and ONOO^− release from HUVECs exposed to oxLDL, nanosensors (Example 8); format: cell-based, human; conditions: oxLDL 20 min, then agent 1 hour (EPA 10 μM, ATM 1.0 μM)
Experimental: Human umbilical vein endothelial cells (HUVECs) were isolated into primary cultures from female donors by Clonetics (San Diego, Calif.) and purchased as proliferating cells. All cell culture donors were healthy, with no pregnancy or prenatal complications. […] The confluent cells (4 to 5×10^5 cells/35 mm dish) were placed with minimum essential medium containing 3 mM L-arginine and 0.1 mM BH4 [(6R)-5,6,7,8-tetrahydrobiopterin]. Before experimental use, the cells (from second or third passage) were rinsed twice with Tyrode-HEPES buffer with 1.8 mM CaCl2.
The omega-3 fatty acids (O3FAs) cis-5,8,11,14,17-eicosapentaenoic acid (EPA) and docosahexaenoic acid (DHA) were purchased from Sigma-Aldrich (St. Louis, Mo.) and prepared initially at 11 mM in redistilled ethanol. Primary and secondary O3FA stock solutions were prepared and stored under argon at −20° C. […]
Oxidation was monitored by the use of measurements of TBARS. […] TBARS concentration was determined as malondialdehyde (MDA) equivalents with the use of an MDA standard curve. […]
(§1) The amperometric method (with a response time of 0.1 ms) provides a quantitative signal (current) that is directly proportional to changes (from basal levels) in NO or ONOO^− concentration. […] Basal NO or ONOO^− levels were measured by differential pulse voltammetry in separate experiments. […]

HUVECs [2] = experiment: NO and ONOO^− release from HUVECs pretreated with agents, then oxLDL (Example 11, objective 1); format: cell-based, human; conditions: agents 10 μM, 30 min pretreatment, then oxLDL 11 mg/dL up to 3 hr
Experimental: Human umbilical vein endothelial cells (HUVECs) were obtained from healthy, female donors and isolated into primary, proliferating cell cultures (Clonetics, San Diego, Calif.). […] The confluent cells (4 to 5×10^5 cells/35 mm dish) were plated with minimum essential medium containing 3 mM L-arginine and 0.1 mM BH4 [(6R)-5,6,7,8-tetrahydrobiopterin]. Before experimental use, the cells (from second or third passage) were rinsed twice with Tyrode-HEPES buffer with 1.8 mM CaCl2.
Venous blood was collected from healthy volunteers into vacutainer tubes containing sodium EDTA. […] The LDL subfraction was retained for additional experimentation. Plasma and lipoprotein fractions were maintained at 4° C. and protected from excessive exposure to light. Prior to oxidation experiments, EDTA was removed from the lipoprotein fraction using PD-10 desalting columns (GE Healthcare, Piscataway N.J.). After equilibration of the column with phosphate buffered saline (PBS), 2.5 mL of the lipoprotein fraction was loaded on the column and the flow-through discarded. The lipoprotein was then eluted with 3 mL of PBS. The LDL fractions were further diluted with PBS to obtain a 100 μg/mL apoB100 concentration.
LDL underwent oxidation following the addition of 10 μM CuSO4. To measure oxidation, 100 μL aliquots were removed and combined with 1.0 mL thiobarbituric acid (0.5%), 10 μL trichloroacetic acid (5%), 10 μL BHT (5 mg/mL in methanol), and 10 μL EDTA (5 mM). […] Sample TBARS concentrations were determined spectrophotometrically by measuring sample absorbances against a standard curve derived from the hydrolysis of 1,1,3,3-tetramethoxypropane.
Concurrent measurements of NO and ONOO^− were performed with tandem electrochemical nanosensors combined into one working unit with a total diameter of 200-400 nm. […]
as §1

O=C(O)c1cccnc1 [Niacin, nicotinic acid]
NO/ONOO^− Ratio (HUVECs [1]): 2.00 ± 0.52
NO release (HUVECs [1]; unit printed in b302 only): 431 ± 100 nM
NO/ONOO^− Ratio (HUVECs [2]): 1.45 ± 0.14
NO release (HUVECs [2]; calcium ionophore): 346 ± 17
NO/ONOO^− Ratio (HUVECs [2]; listed as niacin): 1.45±0.14

Reference: patent US11446269B2, “Methods of reducing or preventing oxidation of small dense LDL or membrane polyunsaturated fatty acids” (Amarin Pharmaceuticals Ireland Limited, priority 2014, dated 2022)
